In ChEMBL document CHEMBL3392989 (Bioorg Med Chem Lett, 2015):
The source made the active and inactive calls. No cut-off for these calls is given here.

Key:
[1] = tested on: HT-22; assay: Cytotoxicity against mouse HT22 cells assessed as reduction in cell viability at 30 to 100 uM after 24 hrs by MTT assay; assay type: cell-based; conditions: ht-22, 24 h
[2] = target: Acetylcholinesterase (Electrophorus electricus, UniProt O42275)
Description: Inhibition of electric eel AChE pre-incubated for 20 mins before acetylcholine iodide substrate addition by Ellman's assay

[3] = target: Beta-secretase 1 (Homo sapiens) (UniProt P56817); assay: Inhibition of BACE1 (unknown origin) at 10 uM using ([Asn670, Lue671]-Amyloid beta/A4 precursor protein 770 fragment 667-676-(2,4dinitrophenyl) Lys-Arg-Arg amide trifluoroacetate salt substrate incubated for 2 hrs by FRET assay
Beta-secretase 1 (Homo sapiens), sequence (P56817 whole entry, the tested form may be a part): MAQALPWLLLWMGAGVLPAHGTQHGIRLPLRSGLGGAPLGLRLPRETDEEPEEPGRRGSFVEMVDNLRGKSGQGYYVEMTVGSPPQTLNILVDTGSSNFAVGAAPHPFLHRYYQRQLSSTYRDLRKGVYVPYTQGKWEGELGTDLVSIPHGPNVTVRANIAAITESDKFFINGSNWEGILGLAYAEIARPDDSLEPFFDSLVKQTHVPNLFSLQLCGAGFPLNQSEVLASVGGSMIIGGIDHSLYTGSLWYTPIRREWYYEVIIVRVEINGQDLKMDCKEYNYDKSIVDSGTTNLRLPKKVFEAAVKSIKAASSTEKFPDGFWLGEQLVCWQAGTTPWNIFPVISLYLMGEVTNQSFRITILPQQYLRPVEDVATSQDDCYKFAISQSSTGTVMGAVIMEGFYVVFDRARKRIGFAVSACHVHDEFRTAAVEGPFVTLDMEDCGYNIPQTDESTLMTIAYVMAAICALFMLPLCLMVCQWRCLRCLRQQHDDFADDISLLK

[4] = tested on: HT-22; assay: Cytoprotective activity in mouse HT22 cells assessed as reduction in glutamate-induced cytotoxicity at 3 uM pre-incubated for 30 mins before incubation with glutamate for 24 hrs by MTT assay; assay type: functional, cell-based
[5] = target: Cholinesterase (Equus caballus, UniProt P81908); assay: Inhibition of horse serum BuChE pre-incubated for 20 mins before […] substrate addition by Ellman's assay
Cholinesterase, sequence (P81908 whole entry): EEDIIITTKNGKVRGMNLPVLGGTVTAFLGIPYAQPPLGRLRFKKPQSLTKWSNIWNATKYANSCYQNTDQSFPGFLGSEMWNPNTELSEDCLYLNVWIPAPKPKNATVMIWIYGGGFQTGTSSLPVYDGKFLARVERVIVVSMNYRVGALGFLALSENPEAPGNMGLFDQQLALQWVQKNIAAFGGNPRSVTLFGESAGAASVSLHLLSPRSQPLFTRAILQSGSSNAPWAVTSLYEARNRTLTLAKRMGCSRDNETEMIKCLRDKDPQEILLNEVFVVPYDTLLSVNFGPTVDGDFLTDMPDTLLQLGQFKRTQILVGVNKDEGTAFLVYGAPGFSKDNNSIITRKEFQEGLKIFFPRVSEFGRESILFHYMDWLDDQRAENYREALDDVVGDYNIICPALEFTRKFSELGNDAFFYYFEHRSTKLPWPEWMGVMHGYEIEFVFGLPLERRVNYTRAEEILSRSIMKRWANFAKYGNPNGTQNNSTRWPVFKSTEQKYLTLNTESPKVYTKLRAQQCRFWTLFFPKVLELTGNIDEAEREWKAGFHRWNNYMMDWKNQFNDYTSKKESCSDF

[6] = target: Amyloid-beta precursor protein (Homo sapiens) (UniProt P05067); assay: Inhibition of Amyloid beta (1 to 42) (unknown origin) self aggregation at 5 uM pre-incubated for 24 hrs by Thioflavin T-based fluorometric assay
Amyloid-beta precursor protein (Homo sapiens), sequence (P05067 whole entry): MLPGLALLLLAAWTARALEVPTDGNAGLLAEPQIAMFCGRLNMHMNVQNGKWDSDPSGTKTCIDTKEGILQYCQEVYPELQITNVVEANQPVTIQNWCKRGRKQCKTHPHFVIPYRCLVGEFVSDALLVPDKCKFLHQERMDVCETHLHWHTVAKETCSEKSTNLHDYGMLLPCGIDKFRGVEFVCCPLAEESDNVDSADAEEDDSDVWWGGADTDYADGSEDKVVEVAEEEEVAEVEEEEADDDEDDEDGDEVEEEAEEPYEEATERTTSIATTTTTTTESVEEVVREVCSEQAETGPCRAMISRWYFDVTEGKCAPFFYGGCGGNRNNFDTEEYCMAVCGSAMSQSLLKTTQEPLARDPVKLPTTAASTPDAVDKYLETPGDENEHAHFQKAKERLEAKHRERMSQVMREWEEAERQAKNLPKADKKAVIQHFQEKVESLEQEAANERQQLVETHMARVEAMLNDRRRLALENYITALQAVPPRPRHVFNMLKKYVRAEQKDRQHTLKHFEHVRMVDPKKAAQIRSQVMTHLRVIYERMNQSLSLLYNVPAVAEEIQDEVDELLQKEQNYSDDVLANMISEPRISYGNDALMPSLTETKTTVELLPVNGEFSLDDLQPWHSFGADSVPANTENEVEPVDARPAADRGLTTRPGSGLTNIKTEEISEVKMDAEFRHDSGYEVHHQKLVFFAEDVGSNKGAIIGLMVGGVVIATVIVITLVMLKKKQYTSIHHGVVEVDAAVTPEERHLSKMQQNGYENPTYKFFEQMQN

[7] = tested on: HT-22; assay: Cytotoxicity against mouse HT22 cells assessed as reduction in cell viability at 100 uM after 24 hrs by MTT assay; assay type: cell-based; conditions: ht-22, 24 h
[8] = Metal chelating activity assessed as copper chelation activity by measuring barhochromic shift at 40 uM using CuCl2 UV-vis spectroscopy; assay type: physicochemical
[9] = target: Amyloid-beta precursor protein (Homo sapiens) (UniProt P05067); assay: Inhibition of Amyloid beta (1 to 42) (unknown origin) self aggregation at 50 uM pre-incubated for 24 hrs by Thioflavin T-based fluorometric assay
[10] = tested on: HT-22; assay: Cytoprotective activity in mouse HT22 cells assessed as reduction in glutamate-induced cytotoxicity at 10 uM pre-incubated for 30 mins before incubation with glutamate for 24 hrs by MTT assay; assay type: functional, cell-based
[11] = tested on: HT-22; assay: Cytotoxicity against mouse HT22 cells assessed as reduction in cell viability at 10 to 100 uM after 24 hrs by MTT assay; assay type: cell-based; conditions: ht-22, 24 h
[12] = tested on: HT-22; assay: Cytoprotective activity in mouse HT22 cells assessed as reduction in glutamate-induced cytotoxicity at 0.3 to 10 uM pre-incubated for 30 mins before incubation with glutamate for 24 hrs by MTT assay; assay type: functional, cell-based
[13] = tested on: HT-22; assay: Cytotoxicity against mouse HT22 cells assessed as reduction in cell viability at 10 uM after 24 hrs by MTT assay; assay type: cell-based; conditions: ht-22, 24 h

Acetylcholinesterase, sequence (O42275 whole entry, the tested form may be a part): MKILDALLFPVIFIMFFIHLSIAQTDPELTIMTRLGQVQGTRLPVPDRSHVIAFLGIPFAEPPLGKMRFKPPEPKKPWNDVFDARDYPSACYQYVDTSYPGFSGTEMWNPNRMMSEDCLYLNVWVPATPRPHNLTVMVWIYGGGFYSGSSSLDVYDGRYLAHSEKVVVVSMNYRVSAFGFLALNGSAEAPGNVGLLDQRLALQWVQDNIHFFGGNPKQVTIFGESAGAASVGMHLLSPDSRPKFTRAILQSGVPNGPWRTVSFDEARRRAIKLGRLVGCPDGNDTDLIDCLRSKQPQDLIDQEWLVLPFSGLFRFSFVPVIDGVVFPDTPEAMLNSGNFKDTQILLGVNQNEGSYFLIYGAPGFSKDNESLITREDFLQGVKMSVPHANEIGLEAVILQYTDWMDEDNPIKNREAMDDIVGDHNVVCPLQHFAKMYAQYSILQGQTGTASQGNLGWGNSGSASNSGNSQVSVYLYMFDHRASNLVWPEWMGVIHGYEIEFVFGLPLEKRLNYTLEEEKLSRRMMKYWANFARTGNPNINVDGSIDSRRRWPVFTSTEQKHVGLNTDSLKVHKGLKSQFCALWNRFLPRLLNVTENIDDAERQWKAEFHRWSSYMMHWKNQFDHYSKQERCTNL

With `O=C(CCCCC1CCSS1)NCC(O)CNc1c2c(nc3ccccc13)CCCC2` (stereo not given) the Activity [1] was “Toxic”, the IC50 [2] was 100 nM and the inhibition [3] was 24.8%. The Activity [4] was “Active” and the IC50 [5] was 1180 nM.
In the case of `O=C(/C=C/c1ccc(O)c(O)c1)NCC(O)CNc1c2c(nc3cc(Cl)ccc13)CCCC2` (stereo not given), the inhibition [6] is reported as 9.2%, the Activity [7] is reported as “Toxic” and the Activity [8] is reported as “Active”. The IC50 [2] was 150 nM, the inhibition [3] was 13.1% and the inhibition [9] was 53.2%. For the same molecule, the Activity [10] was “Active” and the IC50 [5] was 360 nM.
For `COc1cc(/C=C/C(=O)NCC(O)CNc2c3c(nc4ccccc24)CCCC3)ccc1O` (stereo not given), the inhibition [6] was 8.4%, the IC50 [2] was 30 nM and the Activity [11] was “Non-toxic”. For the same molecule, the inhibition [3] was 15%, the inhibition [9] was 46.3% and the Activity [12] was “inactive”. The IC50 [5] was 310 nM.
For `COc1cc(/C=C/C(=O)NCC(O)CNc2c3c(nc4cc(Cl)ccc24)CCCC3)ccc1O` (stereo not given), the inhibition [6] was 13.5%, the Activity [7] was “Toxic” and the IC50 [2] was 20 nM. For the same molecule, the inhibition [3] was 2.57%, the inhibition [9] was 48.9% and the Activity [12] was “inactive”. For the same molecule, the IC50 [5] was 710 nM.
In the case of `O=C(CCCCC1CCSS1)NCC(O)CNc1c2c(nc3cc(Cl)ccc13)CCCC2` (stereo not given), the Activity [1] is reported as “Toxic”, the IC50 [2] is reported as 40 nM and the inhibition [3] is reported as 46.8%. For the same molecule, the Activity [4] was “Active”, the IC50 [5] was 1030 nM and the Activity [13] was “Toxic”.
For `O=C(/C=C/c1ccc(O)c(O)c1)NCC(O)CNc1c2c(nc3ccccc13)CCCC2` (stereo not given), the inhibition [6] was 12.8%, the IC50 [2] was 700 nM and the Activity [11] was “Non-toxic”. For the same molecule, the inhibition [3] was 10.5%, the inhibition [9] was 49.8% and the Activity [12] was “inactive”. The IC50 [5] was 1010 nM.
